Laboratory results published in patent US20220047551A1, “PHARMACEUTICAL AGENT FOR TREATING AMYOTROPHIC LATERAL SCLEROSIS OR SUPPRESSING DISEASE PROGRESS THEREOF” (Mitsubishi Tanabe Pharma Corporation, priority 2011, published 2022).

Test system: patients with amyotrophic lateral sclerosis
Test: Placebo-controlled clinical test in amyotrophic lateral sclerosis patients, measured in terms of ALSFRS-R
Assay type: in vivo, human
Procedure: 199 patients with amyotrophic lateral sclerosis who complied with the following selection standards were divided into an actual drug administration group consisting of 100 patients and a placebo administration group of 99 patients:
With regard to the actual drug administration group, two ampules of “Radicut (registered trademark), Injection 30 mg” (containing 30 mg of 3-methyl-1-phenyl-2-pyrazolin-5-one; manufactured and distributed by Mitsubishi Tanabe Pharma Corporation) were diluted with a suitable amount of normal saline before the use, and the thus prepared solution was intravenously administered to the patients by drops over 60 minutes once a day. On the other hand, with regard to the placebo administration group, only normal saline was administered to the patients in the same manner as for the actual drug administration group.
The administration period was divided into first to sixth courses. The first course consisted of a continuous 14-day administration period and the subsequent drug holiday period for 14 days in which drug administration was not carried out. In the second to sixth courses, 1 set consisting of an administration period for a total of 10 out of 14 days and the subsequent 14-day drug holiday period was repeated 5 times.
Before initiation of the drug administration in the first course, and upon termination of the drug holiday periods in the first, second, third, fourth, fifth and sixth courses, the 199 patients were measured in terms of ALSFRS-R. Among the 199 patients, some patients were dropped out from the test during a period after initiation of the administration in the fourth course and before termination of the drug holiday period in the sixth course. In the case of these drop-out patients, the ALSFRS-R score measured immediately before dropping out from the test was considered to be the score upon termination of the drug holiday period in the sixth course, and it was used in the analysis.
A difference between the ALSFRS-R scores between before initiation of the administration in the first course and upon termination of the drug holiday period in the sixth course is shown below.
Subsequently, the 199 patients were divided into the following (1) to (7):
(1) patients who were determined to be “Definite ALS” or “Probable ALS” according to the revised El Escorial (Airlie House) diagnostic criteria; (2) patient who were determined to be “Definite ALS” according to the revised El Escorial (Airlie House) diagnostic criteria; (3) patients who scored two or more points from all items constituting the ALSFRS-R; (4) patients whose % FVC was 80% or more; (5) patients who scored two or more points from all items constituting the ALSFRS-R and whose % FVC was 80% or more; (6) patients who were determined to be “Definite ALS” or “Probable ALS” according to the revised El Escorial (Airlie House) diagnostic criteria, scored two or more points from all items constituting the ALSFRS-R, and whose % FVC was 80% or more; and (7) patients who were determined to be “Definite ALS” according to the revised El Escorial (Airlie House) diagnostic criteria, scored two or more points from all items constituting the ALSFRS-R, and whose % FVC was 80% or more. With regard to the thus specified patients (1) to (7), differences in the ALSFRS-R scores between before the administration in the first course and upon termination of the drug holiday period in the sixth course are shown below.

## CC1=NN(c2ccccc2)C(=O)C1 [Actual drug, 3-methyl-1-phenyl-2-pyrazolin-5-one]
(1) Definite ALS or Probable ALS
  Between-group difference in ALSFRS-R score change (actual drug vs placebo): 1.2 points
(1) Definite ALS or Probable ALS, before first course vs end of sixth course
  Before-and-after difference in ALSFRS-R score: −5.7 points
(2) Definite ALS
  Between-group difference in ALSFRS-R score change (actual drug vs placebo): 2.0 points
(2) Definite ALS, before first course vs end of sixth course
  Before-and-after difference in ALSFRS-R score: −6.7 points
(3) two or more points from all items constituting ALSFRS-R
  Between-group difference in ALSFRS-R score change (actual drug vs placebo): 1.6 points
(3) two or more points from all items constituting ALSFRS-R, before first course vs end of sixth course
  Before-and-after difference in ALSFRS-R score: −4.7 points
(4) 80% or more % FVC
  Between-group difference in ALSFRS-R score change (actual drug vs placebo): 1.3 points
(4) 80% or more % FVC, before first course vs end of sixth course
  Before-and-after difference in ALSFRS-R score: −3.9 points
(5) two or more points from all ALSFRS-R items and 80% or more % FVC
  Between-group difference in ALSFRS-R score change (actual drug vs placebo): 2.5 points
(5) two or more points from all ALSFRS-R items and 80% or more % FVC, before first course vs end of sixth course
  Before-and-after difference in ALSFRS-R score: −3.4 points
(6) Definite ALS or Probable ALS, two or more points from all ALSFRS-R items, and 80% or more % FVC
  Between-group difference in ALSFRS-R score change (actual drug vs placebo): 3.7 points
(6) Definite ALS or Probable ALS, two or more points from all ALSFRS-R items, and 80% or more % FVC, before first course vs end of sixth course
  Before-and-after difference in ALSFRS-R score: −3.8 points
(7) Definite ALS, two or more points from all ALSFRS-R items, and 80% or more % FVC
  Between-group difference in ALSFRS-R score change (actual drug vs placebo): 6.4 points
(7) Definite ALS, two or more points from all ALSFRS-R items, and 80% or more % FVC, before first course vs end of sixth course
  Before-and-after difference in ALSFRS-R score: −4.6 points
All patients (not specified)
  Between-group difference in ALSFRS-R score change (actual drug vs placebo): 0.7 points
All patients (not specified), before first-course administration vs end of sixth-course drug holiday, 60 mg i.v. drops over 60 min once a day
  Before-and-after difference in ALSFRS-R score: −5.3 points
Patient groups (5) to (7)
  Comparison with the placebo administration group (ALSFRS-R difference): significant difference
Specific patients (1) to (7), extrapolated from 7% risk per 1 point ALSFRS-R (Neurology 2005; 64: 38-43)
  Reduction of the risk of death or tracheostomy: ≥ 3.5%
